For 25 compounds, IC50 results are on record in patent US12668585B2, “Substituted pyrimidinyl-pyrazoles as CDK2 inhibitors” (BLUEPRINT MEDICINES CORPORATION, priority 2021, dated 2026).

Test [1] concerns the target T1, CDK1/Cyclin B1, GST-tag (Homo sapiens, UniProt P06493).
T1 construct: GST; purchased BPS 40454
Put plainly: Biochemical CDK inhibition assay (Caliper mobility shift), CDK1/Cyclin B1. The protocol:
(§1) Inhibitory effects of the compounds of the disclosure were measured in biochemical assays that measure the enzymatic phosphorylation activity of CDK enzyme in complex of Cyclin proteins phosphorylates 7.5 micromolar fluorescently labelled peptide substrate, 5-FAM-QSPKKG-CONH2, (FL-Peptide 18, Perkin Elmer, 760362) in the presence of adenosine-5′-triphosphate (ATP) and varying concentrations of the test compound in 100 mM 2-[4-(2-hydroxyethyl)piperazin-1-yl] ethanesulfonic acid (HEPES), pH 7.5, 10 mM MgCl2, 0.015% Brij-35, 1 mM dithiothreitol (DTT), 1.0% dimehylsulfoxide (DMSO). […] Reactions proceeded until between 10% to 20% total peptides were phosphorylated at room temperature (25° C.) and were terminated with 35 mM 2,2′,2″,2′″-(ethane-1,2-diyldinitrilo)tetraacetic acid (EDTA). Product was detected using the Caliper mobility shift detection method where the phosphorylated peptide (product) and substrate were electrophoretically separated and measured. Percent activity was plotted against log concentration of compound and points to generate an apparent IC50. The following CDK enzymes in complex with different cyclin proteins were used in these assays: • CDK1/Cyclin B1, GST-tag (BPS, 40454), 1.5 nM used in the assay • CDK2/Cyclin E (Eurofins, 14-475), 1.25 nM used in the assays
(§2) For inhibitory activity against CDK2/Cyclin E mutant, the following designations are used: ≤10 nM=A; >10-20 nM=B; >20-30 nM=C; >30-100 nM=D and >100=E. For inhibition CDK1/Cyclin B1, GST-tag: ≥500 nM=A; <100-500 nM=B; <100 nM=C.

Test [2] deals with T2, CDK2/Cyclin E (Homo sapiens, UniProt P24941).
T2 construct: purchased Eurofins 14-475
Put plainly: Biochemical CDK inhibition assay (Caliper mobility shift), CDK2/Cyclin E. The note with it: read-out: CDK2/cyclin E1 IC50. The protocol:
as §1, §2

Like-named read-outs stand apart in the source and are kept apart here.

T1 sequence (P06493 whole entry): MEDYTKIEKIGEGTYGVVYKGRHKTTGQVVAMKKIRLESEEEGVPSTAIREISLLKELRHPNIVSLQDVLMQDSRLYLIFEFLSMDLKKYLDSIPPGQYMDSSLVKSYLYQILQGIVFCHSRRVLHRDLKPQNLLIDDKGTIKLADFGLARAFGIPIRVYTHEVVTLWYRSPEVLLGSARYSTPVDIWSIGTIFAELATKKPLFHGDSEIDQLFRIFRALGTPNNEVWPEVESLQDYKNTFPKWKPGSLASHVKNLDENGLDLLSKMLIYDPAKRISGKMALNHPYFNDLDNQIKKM
T1 sequence (P14635 whole entry partner): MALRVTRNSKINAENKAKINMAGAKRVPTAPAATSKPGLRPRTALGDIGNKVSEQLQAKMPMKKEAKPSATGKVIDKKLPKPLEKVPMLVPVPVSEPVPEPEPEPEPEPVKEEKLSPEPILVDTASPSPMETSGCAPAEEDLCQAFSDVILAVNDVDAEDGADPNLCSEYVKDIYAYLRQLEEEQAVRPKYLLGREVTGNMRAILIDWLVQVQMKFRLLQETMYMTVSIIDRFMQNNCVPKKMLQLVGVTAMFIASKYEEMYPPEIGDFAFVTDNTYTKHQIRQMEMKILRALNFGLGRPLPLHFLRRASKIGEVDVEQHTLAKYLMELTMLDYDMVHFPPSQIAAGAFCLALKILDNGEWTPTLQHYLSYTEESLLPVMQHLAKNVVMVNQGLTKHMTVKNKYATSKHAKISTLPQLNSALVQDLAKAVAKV

`Cc1cc(Nc2ncc(C(F)(F)F)c(-c3cnn(CC(C)(C)O)c3)n2)c(F)cc1S(N)(=O)=O` [Example 45, 5-fluoro-4-((4-(1-(2-hydroxy-2-methylpropyl)-1H-pyrazol-4-yl)-5-(trifluoromethyl)pyrimidin-2-yl)amino)-2-methylbenzenesulfonamide]: the IC50 is at least 500 nM in test [1] and 20 to 30 nM in test [2].

With `NS(=O)(=O)c1ccc(Nc2ncc(C(F)(F)F)c(-c3cnn(CC4(O)COC4)c3)n2)c(F)c1` [Example 41, 3-fluoro-4-((4-(1-((3-hydroxyoxetan-3-yl)methyl)-1H-pyrazol-4-yl)-5-(trifluoromethyl)pyrimidin-2-yl)amino)benzenesulfonamide], the IC50 in test [1] was at least 500 nM; in test [2] it was 10 to 20 nM.

On to `CC(C)(O)Cn1cc(-c2nc(Nc3ccc(S(N)(=O)=O)c(Cl)c3F)ncc2C(F)(F)F)cn1` [Example 38, 2-chloro-3-fluoro-4-((4-(1-(2-hydroxy-2-methylpropyl)-1H-pyrazol-4-yl)-5-(trifluoromethyl)pyrimidin-2-yl)amino)benzenesulfonamide], for which the values for the IC50 in test [1] and in test [2] were at least 500 nM and 10 to 20 nM, respectively.

Take `NS(=O)(=O)c1ccc(Nc2ncc(C(F)(F)F)c(-c3cnn(CC(O)C4CC4)c3)n2)c(F)c1` (centres unmarked) [Example 32, 4-((4-(1-(2-cyclopropyl-2-hydroxyethyl)-1H-pyrazol-4-yl)-5-(trifluoromethyl)pyrimidin-2-yl)amino)-3-fluorobenzenesulfonamide]: the figures for the IC50 in test [1] and in test [2] were at least 500 nM and 10 to 20 nM, respectively.

Turning to `CC(C)(O)Cn1cc(-c2nc(Nc3ccc(S(N)(=O)=O)cc3F)ncc2F)cn1` [Example 30, 3-fluoro-4-((5-fluoro-4-(1-(2-hydroxy-2-methylpropyl)-1H-pyrazol-4-yl)pyrimidin-2-yl)amino)benzenesulfonamide], the IC50 in test [1] is 100 to 500 nM; in test [2], at most 10 nM.

Turning to `COc1cc(S(N)(=O)=O)ccc1Nc1ncc(Cl)c(-c2cnn(CC(C)(C)O)c2)n1` [Example 28, 4-((5-chloro-4-(1-(2-hydroxy-2-methylpropyl)-1H-pyrazol-4-yl)pyrimidin-2-yl)amino)-3-methoxybenzenesulfonamide], the IC50 was 100 to 500 nM in test [1] and at most 10 nM in test [2].

On to `CC(C)(O)Cn1cc(-c2nc(Nc3ccc(S(N)(=O)=O)cc3)ncc2F)cn1` [Example 18, 4-((5-fluoro-4-(1-(2-hydroxy-2-methylpropyl)-1H-pyrazol-4-yl)pyrimidin-2-yl)amino)benzenesulfonamide], for which the IC50 is under 100 nM in test [1] and at most 10 nM in test [2].

On to `CC(C)(O)Cn1cc(-c2nc(Nc3ccc(S(N)(=O)=O)cc3F)ncc2C#N)cn1` [Example 19, 4-((5-cyano-4-(1-(2-hydroxy-2-methylpropyl)-1H-pyrazol-4-yl)pyrimidin-2-yl)amino)-3-fluorobenzenesulfonamide], for which the IC50 in test [1] was 100 to 500 nM; in test [2], at most 10 nM.

As for `Cc1cnc(Nc2ccc(S(N)(=O)=O)cc2F)nc1-c1cnn(CC(C)(C)O)c1` [Example 36, 3-fluoro-4-((4-(1-(2-hydroxy-2-methylpropyl)-1H-pyrazol-4-yl)-5-methylpyrimidin-2-yl)amino)benzenesulfonamide], the IC50 in test [1] is at least 500 nM; in test [2], 10 to 20 nM.

`Cc1cc(S(N)(=O)=O)ccc1Nc1ncc(F)c(-c2cnn(CC(C)(C)O)c2)n1` [Example 31, 4-((5-fluoro-4-(1-(2-hydroxy-2-methylpropyl)-1H-pyrazol-4-yl)pyrimidin-2-yl)amino)-3-methylbenzenesulfonamide]: the IC50 in test [1] was 100 to 500 nM; in test [2], at most 10 nM.

Regarding `C[C@H](O)[C@H](C)n1cc(-c2nc(Nc3ccc(S(N)(=O)=O)cc3F)ncc2C(F)(F)F)cn1` (single isomer, unassigned) [Example 9], the results for the IC50 in test [1] and in test [2] were 100 to 500 nM and at most 10 nM, respectively.

On to `C[C@H]([C@@H](C)O)n1cc(-c2nc(Nc3ccc(S(N)(=O)=O)cc3F)ncc2C(F)(F)F)cn1` (single isomer, unassigned) [Example 25], for which the IC50 in test [1] was 100 to 500 nM; in test [2], at most 10 nM.

Take “3-fluoro-4-((4-(1-(2-hydroxyethyl)-1H-pyrazol-4-yl)-5-(trifluoromethyl)pyrimidin-2-yl)amino)benzenesulfonamide or 3-fluoro-4-((2-(1-(2-hydroxyethyl)-1H-pyrazol-4-yl)-5-(trifluoromethyl)pyrimidin-4-yl)amino)benzenesulfonamide [Example 33]”: the IC50 is at least 500 nM in test [1] (apparent IC50, 1.5 nM enzyme, 1.0 mM ATP or ATP Km, 7.5 micromolar FL-Peptide 18, 25° C.) and 10 to 20 nM in test [2] (apparent IC50, 1.25 nM enzyme, 1.0 mM ATP or ATP Km, 7.5 micromolar FL-Peptide 18, 25° C.).

With `C[C@@H](O)Cn1cc(-c2nc(Nc3ccc(S(N)(=O)=O)cc3F)ncc2C(F)(F)F)cn1` [Example 20, (R)-3-fluoro-4-((4-(1-(2-hydroxypropyl)-1H-pyrazol-4-yl)-5-(trifluoromethyl)pyrimidin-2-yl)amino)benzenesulfonamide], the values for the IC50 in test [1] and in test [2] were 100 to 500 nM and at most 10 nM, respectively.

With `NS(=O)(=O)c1ccc(Nc2ncc(C(F)(F)F)c(-c3cnn(C4CCOCC4)c3)n2)c(F)c1` [Example 47, 3-fluoro-4-((4-(1-(tetrahydro-2H-pyran-4-yl)-1H-pyrazol-4-yl)-5-(trifluoromethyl)pyrimidin-2-yl)amino)benzenesulfonamide], the IC50 in test [1] was at least 500 nM; in test [2], at most 10 nM.

Take `CCc1cnc(Nc2ccc(S(N)(=O)=O)cc2)nc1-c1cnn(CC(C)(C)O)c1` [Example 24, 4-((5-ethyl-4-(1-(2-hydroxy-2-methylpropyl)-1H-pyrazol-4-yl)pyrimidin-2-yl)amino)benzenesulfonamide]: the IC50 in test [1] is 100 to 500 nM; in test [2] it was at most 10 nM.

For the compound `CC(C)(O)Cn1cc(-c2nc(Nc3ccc(S(N)(=O)=O)cc3F)ncc2C(F)F)cn1` [Example 11, 4-((5-(difluoromethyl)-4-(1-(2-hydroxy-2-methylpropyl)-1H-pyrazol-4-yl)pyrimidin-2-yl)amino)-3-fluorobenzenesulfonamide], the IC50 in test [1] was 100 to 500 nM; in test [2] it was at most 10 nM.

For `C[C@H](n1cc(-c2nc(Nc3ccc(S(N)(=O)=O)cc3F)ncc2C(F)(F)F)cn1)C(C)(C)O` (single isomer, unassigned) [Example 6, (S)-3-fluoro-4-((4-(1-(3-hydroxy-3-methylbutan-2-yl)-1H-pyrazol-4-yl)-5-(trifluoromethyl)pyrimidin-2-yl)amino)benzenesulfonamide or (R)-3-fluoro-4-((4-(1-(3-hydroxy-3-methylbutan-2-yl)-1H-pyrazol-4-yl)-5-(trifluoromethyl)pyrimidin-2-yl)amino)benzenesulfonamide], the IC50 is under 100 nM in test [1] and at most 10 nM in test [2].

For `Cc1cc(S(N)(=O)=O)ccc1Nc1ncc(C(F)(F)F)c(-c2cnn(CC(C)(C)O)c2)n1` [Example 2, 4-((4-(1-(2-hydroxy-2-methylpropyl)-1H-pyrazol-4-yl)-5-(trifluoromethyl)pyrimidin-2-yl)amino)-3-methylbenzenesulfonamide], the IC50 was 100 to 500 nM in test [1] and at most 10 nM in test [2].

On to `CC(C)(O)Cn1cc(-c2nc(Nc3ccc(S(N)(=O)=O)cc3)ncc2C(F)F)cn1` [Example 4, 4-((5-(difluoromethyl)-4-(1-(2-hydroxy-2-methylpropyl)-1H-pyrazol-4-yl)pyrimidin-2-yl)amino)benzenesulfonamide], for which the figures for the IC50 in test [1] and in test [2] were under 100 nM and at most 10 nM, respectively.

Regarding `Cc1cc(S(N)(=O)=O)ccc1Nc1ncc(Cl)c(-c2cnn(CC(C)(C)O)c2)n1` [Example 14], the IC50 in test [1] was under 100 nM; in test [2], at most 10 nM.

`Cc1cnc(Nc2ccc(S(N)(=O)=O)cc2)nc1-c1cnn(CC(C)(C)O)c1` [Example 17, 4-((4-(1-(2-hydroxy-2-methylpropyl)-1H-pyrazol-4-yl)-5-methylpyrimidin-2-yl)amino)benzenesulfonamide]: the figures for the IC50 in test [1] and in test [2] were 100 to 500 nM and at most 10 nM, respectively.

In the case of `NS(=O)(=O)c1ccc(Nc2ncc(C(F)(F)F)c(-c3cnn(C4COC4)c3)n2)c(F)c1` [Example 43, 3-fluoro-4-((4-(1-(oxetan-3-yl)-1H-pyrazol-4-yl)-5-(trifluoromethyl)pyrimidin-2-yl)amino)benzenesulfonamide], the IC50 in test [1] is at least 500 nM; in test [2] it was 20 to 30 nM.

In the case of `C[C@H](O)Cn1cc(-c2nc(Nc3ccc(S(N)(=O)=O)cc3F)ncc2C(F)(F)F)cn1` [Example 35, (S)-3-fluoro-4-((4-(1-(2-hydroxypropyl)-1H-pyrazol-4-yl)-5-(trifluoromethyl)pyrimidin-2-yl)amino)benzenesulfonamide], the results for the IC50 in test [1] and in test [2] were at least 500 nM and 10 to 20 nM, respectively.

Take `CC(C)(O)Cn1cc(-c2nc(Nc3ccc(S(N)(=O)=O)cc3Cl)ncc2Cl)cn1` [Example 23, 3-chloro-4-((5-chloro-4-(1-(2-hydroxy-2-methylpropyl)-1H-pyrazol-4-yl)pyrimidin-2-yl)amino)benzenesulfonamide]: the IC50 in test [1] is 100 to 500 nM; in test [2], at most 10 nM.
